The target of this test is NLRP3 (Homo sapiens, UniProt Q96P20). In words: THP-1 cells pyroptosis assay. The test is classed as cell-based. Also on record: Seed THP-1 cells (25,000 cells/well) containing 1.0 μg/ml LPS; host or cells: THP-1 cells, LPS-primed, nigericin-stimulated. Particulars: 1.0 μg/ml LPS, nigericin 5 μM, resazurin readout. As for the experimental part: The cells were routinely passaged and grown to confluency (˜10^6 cells/ml). On the day of the experiment, THP-1 cells were harvested and resuspended into RPMI medium (without FBS). […] To this diluted cell solution was added LPS (Sigma #L4524) to give a 1 μg/ml Final Assay Concentration (FAC). 40 μl of the final preparation was aliquoted into each well of a 96-well plate. The plate thus prepared was used for compound screening.
The following method step-by-step assay was followed for compound screening. • 1. […] Incubate for 3 hrs at 37° C., 5% CO2 • 4. Add 5 μl nigericin (Sigma #N7143) (FAC 5 μM) to all wells • 5. Incubate for 1 hr at 37° C., 5% CO2 • 6. At the end of the incubation period, spin plates at 300×g for 3 mins and remove supernatant • 7. Then add 50 μl of resazurin (Sigma #R7017) (FAC 100 μM resazurin in RPMI medium without FBS) and incubate plates for a further 1-2 hrs at 37° C. and 5% CO2 • 8. […] IC50 data is fitted to a non-linear regression equation (log inhibitor vs response-variable slope 4-parameters)
Background: Alamar Blue is a resazurin reagent that responds to reducing activity.

Structures are written as SMILES.

NLRP3, sequence (Q96P20 whole entry): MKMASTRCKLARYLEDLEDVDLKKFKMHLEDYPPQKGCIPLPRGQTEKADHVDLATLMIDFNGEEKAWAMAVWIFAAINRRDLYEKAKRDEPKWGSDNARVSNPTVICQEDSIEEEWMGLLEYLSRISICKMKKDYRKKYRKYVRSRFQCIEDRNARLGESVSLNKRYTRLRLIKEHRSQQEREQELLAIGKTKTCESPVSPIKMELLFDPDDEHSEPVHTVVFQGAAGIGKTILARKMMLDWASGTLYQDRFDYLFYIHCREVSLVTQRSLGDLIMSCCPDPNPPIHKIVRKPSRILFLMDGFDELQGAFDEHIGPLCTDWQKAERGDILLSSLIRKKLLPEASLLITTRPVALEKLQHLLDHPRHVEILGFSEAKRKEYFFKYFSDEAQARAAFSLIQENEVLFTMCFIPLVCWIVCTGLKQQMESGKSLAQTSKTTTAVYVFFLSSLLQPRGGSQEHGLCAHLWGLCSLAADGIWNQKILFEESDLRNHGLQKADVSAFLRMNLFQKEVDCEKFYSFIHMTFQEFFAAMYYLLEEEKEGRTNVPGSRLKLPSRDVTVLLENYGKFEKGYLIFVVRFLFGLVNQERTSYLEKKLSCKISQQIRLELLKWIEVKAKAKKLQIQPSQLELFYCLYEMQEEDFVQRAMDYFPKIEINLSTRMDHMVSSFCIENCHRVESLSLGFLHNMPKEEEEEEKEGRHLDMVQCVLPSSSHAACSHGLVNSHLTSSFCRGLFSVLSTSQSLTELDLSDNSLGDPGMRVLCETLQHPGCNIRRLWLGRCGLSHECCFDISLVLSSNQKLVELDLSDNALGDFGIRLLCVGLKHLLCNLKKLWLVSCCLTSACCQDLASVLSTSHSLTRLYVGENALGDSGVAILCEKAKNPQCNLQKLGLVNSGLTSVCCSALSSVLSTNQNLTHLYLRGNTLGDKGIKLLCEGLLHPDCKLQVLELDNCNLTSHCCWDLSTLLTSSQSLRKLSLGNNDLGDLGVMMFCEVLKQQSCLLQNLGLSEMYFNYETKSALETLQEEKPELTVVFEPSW

For the molecule `CCN1CCC[C@@H](Nc2nnc(-c3c(C)cc(C(F)(F)F)cc3O)n(C)c2=O)C1` (single isomer, unassigned) [Example 29, (M or P)-6-[[(3R)-1-ethyl-3-piperidyl]amino]-3-[2-hydroxy-6-methyl-4-(trifluoromethyl)phenyl]-4-methyl-1,2,4-triazin-5-one], the IC50 – broadly, the concentration that gives 50% inhibition – turned out to be 7.8 nM.

For `CCN1CCC[C@@H](Nc2nnc(-c3c(C)cc(C(F)(F)F)cc3O)n(C)c2=O)C1` (single isomer, unassigned) [Example 30, (P or M)-6-[[(3R)-1-ethyl-3-piperidyl]amino]-3-[2-hydroxy-6-methyl-4-(trifluoromethyl)phenyl]-4-methyl-1,2,4-triazin-5-one], it took 751 nM to reach half-maximal inhibition (IC50). `Cn1c(-c2ccc(C(F)(F)F)cc2O)nnc(N[C@@H]2CCCNC2)c1=O` [Example 3, 3-[2-Hydroxy-4-(trifluoromethyl)phenyl]-4-methyl-6-[[(3R)-3-piperidyl]amino]-1,2,4-triazin-5-one;2,2,2-trifluoroacetic Acid] showed an IC50 of 170 nM.

`CN1CC(Nc2nnc(-c3ccc(C(F)(F)F)cc3O)n(C)c2=O)CC(C)(C)C1` (stereo not drawn) [Example 9, 3-[2-Hydroxy-4-(trifluoromethyl)phenyl]-4-methyl-6-[(1,5,5-trimethyl-3-piperidyl)amino]-1,2,4-triazin-5-one;2,2,2-trifluoroacetic Acid]: the half-inhibitory concentration (IC50) is 868 nM.

With `Cn1c(-c2ccc(C(F)(F)F)cc2O)nnc(NC2CC3CNC2C3)c1=O` (stereo not drawn) [Example 13, 6-(2-Azabicyclo[2.2.1]heptan-6-ylamino)-3-[2-hydroxy-4-(trifluoromethyl)phenyl]-4-methyl-1,2,4-triazin-5-one;2,2,2-trifluoroacetic Acid], the IC50 is greater than 1000 nM.

`CCN1C[C@@H](C)C[C@@H](Nc2nnc(-c3ccc(C(F)(F)F)cc3O)n(C)c2=O)C1` [Example 14, 6-[[(3R,5S)-1-Ethyl-5-methyl-3-piperidyl]amino]-3-[2-hydroxy-4-(trifluoromethyl)phenyl]-4-methyl-1,2,4-triazin-5-one;2,2,2-trifluoroacetic Acid] gave an IC50 of 765 nM.

As for `CCN1C[C@H](C)C[C@@H](Nc2nnc(-c3ccc(C(F)(F)F)cc3O)n(C)c2=O)C1` [Example 15, 6-[[(3R,5R)-1-Ethyl-5-methyl-3-piperidyl]amino]-3-[2-hydroxy-4-(trifluoromethyl)phenyl]-4-methyl-1,2,4-triazin-5-one;2,2,2-trifluoroacetic Acid], the IC50 was greater than 1000 nM. As for `CN1CC(Nc2nnc(-c3ccc(C(F)(F)F)cc3O)n(C)c2=O)C[C@H](F)C1` (stereo partly drawn) [Example 16, 6-[[(5S)-5-fluoro-1-methyl-3-piperidyl]amino]-3-[2-hydroxy-4-(trifluoromethyl)phenyl]-4-methyl-1,2,4-triazin-5-one;2,2,2-trifluoroacetic Acid], half-maximal inhibition (IC50) was put at 860 nM.

Molecule `Cn1c(-c2ccc(C(F)(F)F)cc2O)nnc(N[C@@H]2CCC(C)(C)NC2)c1=O` [Example 17, 6-[[(3R)-6,6-Dimethyl-3-piperidyl]amino]-3-[2-hydroxy-4-(trifluoromethyl)phenyl]-4-methyl-1,2,4-triazin-5-one;2,2,2-trifluoroacetic Acid] returned an IC50 of 683 nM.

Regarding `CCN1CCC[C@@H](Nc2nnc(-c3ccc(C(F)(F)F)cc3O)n(C3CC3)c2=O)C1` [Example 20, 4-Cyclopropyl-6-[[(3R)-1-ethyl-3-piperidyl]amino]-3-[2-hydroxy-4-(trifluoromethyl)phenyl]-1,2,4-triazin-5-one;2,2,2-trifluoroacetic Acid], the IC50 was found to be 726 nM. This IC50 and that of the molecule before are within 1.5-fold of each other. For the molecule `CN1CCC[C@@H](Nc2nnc(-c3ccc(C(F)(F)F)cc3O)n(C)c2=O)C1` [Example 26, 3-[2-hydroxy-4-(trifluoromethyl)phenyl]-4-methyl-6-[[(3R)-1-methyl-3-piperidyl]amino]-1,2,4-triazin-5-one], the 50% inhibitory concentration (IC50) is 10.3 nM. This IC50 is about 70-fold lower than that of the molecule before. `CCN1CCC[C@@H](Nc2nnc(-c3ccc(S(F)(F)(F)(F)F)cc3O)n(C)c2=O)C1` [Example 31, 6-[[(3R)-1-Ethyl-3-piperidyl]amino]-3-[2-hydroxy-4-(pentafluoro-λ6-sulfanyl)phenyl]-4-methyl-1,2,4-triazin-5-one] showed an IC50 of 115 nM.
